≈ marks a conversion by molar mass, not a printed value. Like-named read-outs stand apart in the source and are kept apart here.
Key:
[1] = test system: Staphylococcus aureus 6538p; experiment: In vitro antibacterial activity (MIC, agar dilution), Biological Example 1; format: cell-based; conditions: 18 h, Table 25, read-out: Minimum Inhibitory Concentration
[2] = test system: Staphylococcus aureus giorgio; experiment: as above; format: cell-based; conditions: 18 h, Table 25, read-out: Minimum Inhibitory Concentration
[3] = test system: Staphylococcus aureus 77; experiment: as above; format: cell-based; conditions: 18 h; Staphylococcus aureus 77, Table 25; read-out: Minimum Inhibitory Concentration
[4] = test system: Staphylococcus aureus 241; experiment: as above; format: cell-based; conditions: 18 h; Staphylococcus aureus 241, Table 25; read-out: Minimum Inhibitory Concentration
[5] = test system: Staphylococcus epidermidis 887E; experiment: as above; format: cell-based; conditions: 18 h, Table 25, read-out: Minimum Inhibitory Concentration
[6] = test system: Staphylococcus epidermidis 178; experiment: as above; format: cell-based; conditions: 18 h; Staphylococcus epidermidis 178, Table 25; read-out: Minimum Inhibitory Concentration
[7] = test system: Streptococcus faecalis 29212; experiment: as above; format: cell-based; conditions: Enterococcus faecalis, 18 h; Streptococcus faecalis 29212, Table 25; read-out: Minimum Inhibitory Concentration
[8] = test system: Bacillus subtilis 6633; experiment: as above; format: cell-based; conditions: 18 h; Bacillus subtilis 6633, Table 25; read-out: Minimum Inhibitory Concentration
[9] = test system: Micrococcus luteus 9341; experiment: as above; format: cell-based; conditions: 18 h; Micrococcus luteus 9341, Table 25; read-out: Minimum Inhibitory Concentration
[10] = test system: Escherichia coli 10536; experiment: as above; format: cell-based; conditions: read-out: Minimum Inhibitory Concentration
[11] = test system: Escherichia coli 3190Y; experiment: as above; format: cell-based; conditions: 18 h, Table 25, read-out: Minimum Inhibitory Concentration
[12] = test system: Escherichia coli 851E; experiment: as above; format: cell-based; conditions: 18 h, Table 25, read-out: Minimum Inhibitory Concentration
[13] = test system: Escherichia coli TEM3 3455E; experiment: microbe, parasite or virus in culture; format: cell-based; conditions: TEM33455E, 18 h, read-out: Minimum Inhibitory Concentration
[14] = test system: Escherichia coli TEM5 3739E; experiment: microbe, parasite or virus in culture; format: cell-based; conditions: TEM53739E, 18 h, read-out: Minimum Inhibitory Concentration
[15] = test system: Escherichia coli TEM9 2639E; experiment: microbe, parasite or virus in culture; format: cell-based; conditions: TEM92639E, 18 h, read-out: Minimum Inhibitory Concentration
[16] = test system: Pseudomonas aeruginosa 1912E; experiment: In vitro antibacterial activity (MIC, agar dilution), Biological Example 1; format: cell-based; conditions: 18 h, read-out: Minimum Inhibitory Concentration
[17] = test system: Pseudomonas aeruginosa 10145; experiment: as above; format: cell-based; conditions: 18 h; Pseudomonas aeruginosa 10145, Table 25; read-out: Minimum Inhibitory Concentration
[18] = test system: Acinetobacter calcoaceticus 15473; experiment: as above; format: cell-based; conditions: read-out: Minimum Inhibitory Concentration
[19] = test system: Citrobacter diversus 2046E; experiment: as above; format: cell-based; conditions: Citrobacter koseri, 18 h, Table 25, read-out: Minimum Inhibitory Concentration
[20] = test system: Enterobacter cloacae 1194E; experiment: microbe, parasite or virus in culture; format: cell-based; conditions: 18 h, read-out: Minimum Inhibitory Concentration
[21] = test system: Enterobacter cloacae P99; experiment: microbe, parasite or virus in culture; format: cell-based; conditions: P99, 18 h, read-out: Minimum Inhibitory Concentration
[22] = test system: Klebsiella aerogenes 1976E; experiment: In vitro antibacterial activity (MIC, agar dilution), Biological Example 1; format: cell-based; conditions: 18 h, Table 25, read-out: Minimum Inhibitory Concentration
[23] = test system: Klebsiella aerogenes 1082E; experiment: as above; format: cell-based; conditions: 18 h, Table 25, read-out: Minimum Inhibitory Concentration
[24] = test system: Salmonella typimurium 14028; experiment: as above; format: cell-based; conditions: 18 h; Salmonella typimurium 14028, Table 25; read-out: Minimum Inhibitory Concentration
[25] = Pharmacokinetic test; format: in vivo; conditions: rat, blood, 20 mg/kg, SD rats (male); for Cmax: read-out: Cmax (maximum blood concentration); for half-life: read-out: T1/2 (biological half life) (converted); for Tmax: read-out: Tmax (time showing maximum blood concentration); for bioavailability: printed in the IV line, read-out: F (bioavailability)
[26] = Moisture content according to hydration number; format: physicochemical; conditions: actual moisture content, methanesulfonate hydrates
Experimental: The moisture content of the hydrate varies with the hydration number (n) of the hydrated molecule. Since the molecular weight of 7-(4-amino-methyl-3-methyloxylminopyrrolidin-1-yl)-1-cyclopropyl-6-fluoro- 4-oxo-1,4-dihydro-1,8-naphthyridine-3-carboxylic acid methanesulfonate is 485.5, the moisture content of the hydrate for n equal to 1, 1.5, 2, 2.5, 3, 3.5 or 4 is calculated to be 3.6%, […], 6.9%, 8.5%, 10.0%, 11.5% or 12.9%, respectively. However, the actual moisture content may differ from the calculated moisture content depending on differences in recrystallization conditions, drying conditions, etc.

[27] = Chemical stability under heating
Experimental: The anhydride and each of the hydrates was introduced into a glass vial and maintained at 70° C.

[28] = 18 h, Escherichia coli 10536, Table 25
[29] = Pseudomonas aeruginosa 1912E, Table 25
[30] = 18 h, Acinetobacter calcoaceticus 15473, Table 25

Row | SMILES | MIC [1] [µg/mL] | MIC [2] [µg/mL] | MIC [3] [µg/mL] | MIC [4] [µg/mL] | MIC [5] [µg/mL] | MIC [6] [µg/mL] | MIC [7] [µg/mL] | MIC [8] [µg/mL] | MIC [9] [µg/mL] | MIC [11] [µg/mL] | MIC [12] [µg/mL] | MIC [13] [µg/mL] | MIC [14] [µg/mL] | MIC [15] [µg/mL] | MIC [17] [µg/mL] | MIC [19] [µg/mL] | MIC [20] [µg/mL] | MIC [21] [µg/mL] | MIC [22] [µg/mL] | MIC [23] [µg/mL] | also measured
1 | CC(C)(C)ON=C1CN(c2nc3c(cc2F)c(=O)c(C(=O)O)cn3C2CC2)CC1CN (stereo not drawn) [Example 89, 7-(4-aminomethyl-3-t-butyloxyimino-pyrrolidin-1-yl)-1-cyclopropyl-6-fluoro-1,4-dihydro-4-oxo-1,8-naphthyridine-3-carboxylic acid] | ≤ 0.008 | ≤ 0.008 | ≤ 0.008 | 1 (≈ 2.32 µM) | ≤ 0.008 | 0.5 (≈ 1.16 µM) | 0.063 (≈ 0.146 µM) | ≤ 0.008 | 0.25 (≈ 0.579 µM) | 0.016 (≈ 0.0371 µM) | 0.063 (≈ 0.146 µM) | 0.25 (≈ 0.579 µM) | 0.13 (≈ 0.301 µM) | 0.063 (≈ 0.146 µM) | 2 (≈ 4.64 µM) | 0.13 (≈ 0.301 µM) | 0.13 (≈ 0.301 µM) | 0.016 (≈ 0.0371 µM) | 0.5 (≈ 1.16 µM) | 0.25 (≈ 0.579 µM) | MIC [10, 28]: 0.016 µg/mL (≈ 0.0371 µM); MIC [16, 29]: 2 µg/mL (≈ 4.64 µM); MIC [18, 30]: 0.031 µg/mL (≈ 0.0718 µM); MIC [24]: 0.13 µg/mL (≈ 0.301 µM); Cmax ([25]; PO): 4890 ± 2230 ng/mL; half-life ([25]; PO): 6.69 ± 2.78 h; Tmax ([25]; PO): 2.18 ± 0.77 h; bioavailability [25]: > 100%; half-life ([25]; IV): 2.29 ± 1.13 h
2 | CON=C1CN(c2nc3c(cc2F)c(=O)c(C(=O)O)cn3C2CC2)CC1CN (stereo not drawn) [2 hydrate, 7-(4-aminomethyl-3-methyloxylminopyrrolidin-1-yl)-1-cyclopropyl-6-fluoro-4-oxo-1,4-dihydro-1,8-naphthyridine-3-carboxylic acid methanesulfonate] |  |  |  |  |  |  |  |  |  |  |  |  |  |  |  |  |  |  |  |  | Moisture Content [26]: 6-8%
3 | CON=C1CN(c2nc3c(cc2F)c(=O)c(C(=O)O)cn3C2CC2)CC1CN (stereo not drawn) [3.5 hydrate, 7-(4-aminomethyl-3-methyloxylminopyrrolidin-1-yl)-1-cyclopropyl-6-fluoro-4-oxo-1,4-dihydro-1,8-naphthyridine-3-carboxylic acid methanesulfonate] |  |  |  |  |  |  |  |  |  |  |  |  |  |  |  |  |  |  |  |  | Moisture Content [26]: 11-12%
4 | CON=C1CN(c2c(F)cc3c(=O)c(C(=O)O)cn(C4CC4)c3c2F)CC1CN (stereo not drawn) [Example 177] | ≤ 0.008 | ≤ 0.008 | 0.016 (≈ 0.0394 µM) | 0.5 (≈ 1.23 µM) | ≤ 0.008 | 1 (≈ 2.46 µM) | 0.031 (≈ 0.0763 µM) | ≤ 0.008 | 0.063 (≈ 0.155 µM) | ≤ 0.008 | 0.031 (≈ 0.0763 µM) | 0.25 (≈ 0.615 µM) | 0.13 (≈ 0.32 µM) | 0.063 (≈ 0.155 µM) | 0.5 (≈ 1.23 µM) | 0.031 (≈ 0.0763 µM) | 0.063 (≈ 0.155 µM) | 0.016 (≈ 0.0394 µM) | 0.13 (≈ 0.32 µM) | 0.063 (≈ 0.155 µM) | MIC [10, 28]: ≤ 0.008 µg/mL; MIC [16, 29]: 0.5 µg/mL (≈ 1.23 µM); MIC [18, 30]: 0.13 µg/mL (≈ 0.32 µM); MIC [24]: 0.063 µg/mL (≈ 0.155 µM); Cmax ([25]; PO): 370 ± 110 ng/mL; half-life ([25]; PO): 3.93 ± 1.31 h; Tmax ([25]; PO): 0.51 ± 0.33 h; bioavailability [25]: 47.2%; half-life ([25]; IV): 1.92 ± 0.38 h
5 | CON=C1CN(c2nc3c(cc2F)c(=O)c(C(=O)O)cn3C2CC2)CC1CN (stereo not drawn) [Anhydrate, 7-(4-aminomethyl-3-methyloxyiminopyrrolidin-1-yl)-1-cyclopropyl-6-fluoro-4-oxo-1,4-dihydro-1,8-naphthyridine-3-carboxylic acid methanesulfonate anhydride] |  |  |  |  |  |  |  |  |  |  |  |  |  |  |  |  |  |  |  |  | thermal stability [27]: 99%; remaining at 336 h ([27]; thermal stability, 2 weeks, 70° C.): 97%; remaining at 672 h ([27]; thermal stability, 4 weeks, 70° C.): 95%
6 | CON=C1CN(c2cc3c(cc2F)c(=O)c(C(=O)O)cn3C2CC2)CC1CN (stereo not drawn) [Example 179, 7-(4-aminomethyl-3-methoxyiminopyrrolidin-1-yl)-1-cyclopronyl-6-fluoro-4-oxo-1,4-dihydroquinoline-3-carboxylic acid] | ≤ 0.008 | 0.016 (≈ 0.0412 µM) | 0.031 (≈ 0.0798 µM) | 2 (≈ 5.15 µM) | 0.016 (≈ 0.0412 µM) | 2 (≈ 5.15 µM) | 0.031 (≈ 0.0798 µM) | ≤ 0.008 | 0.13 (≈ 0.335 µM) | ≤ 0.008 | ≤ 0.008 | 0.13 (≈ 0.335 µM) | 0.063 (≈ 0.162 µM) | 0.031 (≈ 0.0798 µM) | 0.25 (≈ 0.644 µM) | 0.031 (≈ 0.0798 µM) | 0.031 (≈ 0.0798 µM) | 0.008 (≈ 0.0206 µM) | 0.13 (≈ 0.335 µM) | 0.031 (≈ 0.0798 µM) | MIC ([10]; Escherichia coli, 10536, 18 h): < 0.008 µg/mL; MIC ([16]; Pseudomonas aeruginosa, 1912E): 0.25 µg/mL (≈ 0.644 µM); MIC ([18]; Acinetobacter calcoaceticus, 15473, 18 h): 0.016 µg/mL (≈ 0.0412 µM); MIC [24]: 0.063 µg/mL (≈ 0.162 µM)

Source: US5776944A, “7-(4-aminomethyl-3-methyloxyiminopyrroplidin-1-yl)-1-cyclopropyl-6-flu oro-4-oxo-1,4-dihydro-1,8-naphthyridine-3-carboxylic acid and the process for the preparation thereof” (LG Chemical Ltd., priority 1994, dated 1998)
